Results as given in PMC8370991, “Structural basis for the inhibition of HTLV-1 integration inferred from cryo-EM deltaretroviral intasome structures” (Nature Communications, 2021).
Like-named read-outs stand apart in the source and are kept apart here.

Key:
recombinant HTLV-1 IN = biological target: T1, recombinant HTLV-1 IN (Human T-cell leukemia virus 1, UniProt P03362); assay: In vitro integration strand transfer assay with HTLV-1 IN; type: biochemical; conditions: for HTLV-1 IN strand transfer activity (No drug = 100): INSTI at 634 nM
T1 construct: made in house
Description: We used in vitro strand transfer assays to screen this small molecule library for its ability to inhibit recombinant HTLV-1 IN. The enzyme was incubated with an oligonucleotide vDNA donor mimic in the presence or absence of INSTIs and was allowed to react with a supercoiled plasmid mimicking target DNA. During the screening, the concentration of each compound was adjusted to 634 nM to provide optimal resolution of efficacy between well- and under-performing compounds.
The donor vDNA that mimics the 3′-processed LTR of HTLV-1 or STLV-1 DNA was preassembled by annealing the U5_S20Q_UP and U5_S20Q_B or MarB43_U5_S30UP or MarB43_U5_S30B oligonucleotides, respectively (Supplementary Table 4) in 100 mM Tris pH 7.4, 400 mM NaCl. For HTLV-1 IN, strand transfer reactions were conducted in a solution of 24.3 mM PIPES pH 6.0, 138.4 mM NaCl, 16.6 mM MgCl2, 5.8 μM ZnCl2, 12.7 mM DTT, 0.53 μM donor DNA and 4 μg of HTLV-1 IN[9],[39]. In brief, the reaction was incubated at RT for 15 min in the presence of an INSTI or dimethyl sulfoxide (DMSO) control and the reaction was started by the addition of 300 ng of pGEM-9Zf(-) supercoiled plasmid DNA. The reaction was incubated for 1 h at 37 °C and stopped by adding 0.5% SDS and 25 mM ethylenediaminetetraacetic acid (EDTA), pH 8.0.
Proteins were degraded by incubation with 30 μg of proteinase K (Roche) at 37 °C for 1 h. DNA was precipitated at −20 °C overnight in the presence of ethanol supplemented with 20 μg of glycogen and then resuspended in 1.5× agarose loading dye. The DNA products were separated by electrophoresis through 1.5% agarose gel and stained with ethidium bromide and imaged using the BioRad GelDox XR + imager. The data were analysed and the IC50 calculated as previously described. In brief, the DNA band that corresponds to the concerted integration product was quantified by densitometry in ImageLab 4.1 (Bio-Rad). All experiments were done in triplicate. Quantified data points were fitted to dose–response curves in Prism 9. The cumulative standard deviation for each drug was calculated as an average of the upper limit and lower limit values: Lowerlimit=IC50/10^logSE(IC50) Upperlimit=IC50×10^logSE(IC50)

HIV-1 = HIV-1 infection model, read-out: HIV-1 EC50 ± stdev, cited from earlier work
HTLV-1 = assay: Alu-qPCR of integrated provirus in HTLV-1 infected Jurkat cells; type: cell-based; conditions: normalized to GAPDH
Description: The HTLV-1 cell-to-cell infection was performed as previously described; Jurkat T cells were counted and diluted in complete RPMI to a final concentration of 0.25 × 10^6 cells/ml and pre-treated with INSTI drugs (final concentration ranging from 0.2 pM to 2 μM) or DMSO as a control for 24 h. MT-2 cells were resuspended in RPMI at a concentration of 2 × 10^6 cells/ml and subjected to a nonlethal γ-radiation dose of 400 Gy. Cells were resuspended at a concentration of 2 × 10^6 cells/ml in serum-free RPMI supplemented with the corresponding INSTI drug. Co-culture of 0.5 × 10^6 for each cell line was carried out for 16 h, after which cells were washed in PBS and resuspended in 1 ml of depletion buffer (PBS, 0.1% FBS and 2 mM EGTA). MT-2 cells were depleted from the culture by means of anti-CD25 magnetic beads (DynabeadsTM CD25, Thermo Fisher). Depletion efficiency was confirmed via flow cytometry as described previously. Jurkat cells were cultured for 2 weeks in complete RPMI supplemented with the drugs and genomic DNA was extracted (DNeasy kit, Qiagen) and stored at −20 °C for subsequent analysis. All the experiments were done in triplicate.
The PVL was measured as previously described[9],[53],[54]. Jurkat genomic DNA was quantified and diluted to a concentration of 5 ng/μL. Real-time qPCR analysis were conducted on 20 ng of gDNA to measure the level of HTLV-1 tax and gapdh genes (Supplementary Table 5). For the standard curve, the gDNA from an HTLV-1 naturally infected T-cell clone (clone 11.50, courtesy of professor Charles Bangham), which has one copy of tax and two of gapdh, was used. The integrated provirus copy number was calculated as follows: (tax copy numbers)/(2×gapdh copy number)[53], and normalised to the DMSO-treated control which was set to 100%. The PVL data were fitted to a dose–response curve in Prism 7 and the EC50 was calculated. Alu-PCR was performed as previously described in ref. [55]. In brief, the first PCR reaction was done with Phusion polymerase starting from 80 ng of gDNA using the ALU-specific primers (Alu-F/Gag-R). The nested PCR was run diluting the amplificated product 1:50. The reaction was done as a qPCR using Gag-specific primers (Gag-R/Gag-F) and the Luna SYBR dye reaction mix (New England Biolabs). The integrated provirus copy numbers were normalised to GAPDH and Jurkat cells treated with DMSO and infected with HTLV-1 were set to 100%. Experiments were done in triplicate. […]
Supplementary Figure 6 | Integrated provirus was quantified by Alu-qPCR.
Values were normalized to GAPDH. Uninfected represents uninfected Jurkat cells, acting as negative control. Condition without any drug present (DMSO) was set as 100%. Mean values and standard deviations are shown for n = three biologically independent experiments. P-values were calculated with respect to the DMSO control using the unpaired t-test with Welch’s correction in Prism 9. P-values are two-sided.

[1] = Replicate 1, read-out: HTLV-1 IN strand transfer IC50
[2] = Replicate 2, read-out: HTLV-1 IN strand transfer IC50
[3] = Replicate 3, read-out: HTLV-1 IN strand transfer IC50
[4] = integrase strand-transfer drug titration, n = 3, read-out: HTLV-1 IC50 ± stdev

T1 sequence (P03362 1168-1462): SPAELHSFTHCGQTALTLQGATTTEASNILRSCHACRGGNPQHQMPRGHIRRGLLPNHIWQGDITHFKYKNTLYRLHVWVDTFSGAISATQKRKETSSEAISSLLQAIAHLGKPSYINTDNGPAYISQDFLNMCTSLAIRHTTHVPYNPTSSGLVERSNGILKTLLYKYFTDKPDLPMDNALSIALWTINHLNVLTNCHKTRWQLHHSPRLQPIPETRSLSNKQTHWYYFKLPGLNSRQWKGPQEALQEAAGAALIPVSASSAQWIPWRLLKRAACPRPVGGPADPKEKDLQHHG

Row | SMILES | HTLV-1 IN strand transfer activity (No drug = 100) (recombinant HTLV-1 IN; Replicate 1) | HTLV-1 IN strand transfer activity (No drug = 100) (recombinant HTLV-1 IN; Replicate 2) | HTLV-1 IN strand transfer activity (No drug = 100) (recombinant HTLV-1 IN; Replicate 3) | IC50 (recombinant HTLV-1 IN; [1]) | IC50 (recombinant HTLV-1 IN; [2]) | IC50 (recombinant HTLV-1 IN; [3]) | IC50 (recombinant HTLV-1 IN; [4]) | EC50 (HIV-1; supplementary ref 1) | Integrated provirus by Alu-qPCR (DMSO = 100%) (HTLV-1; Replicate 1) | Integrated provirus by Alu-qPCR (DMSO = 100%) (HTLV-1; Replicate 2) | Integrated provirus by Alu-qPCR (DMSO = 100%) (HTLV-1; Replicate 3) | EC50 (HIV-1; supplementary ref 14)
1 | Nc1c(C(=O)NCc2ccc(F)cc2F)c(=O)n(O)c2ncccc12 [XZ384, 4-amino-N-(2,4-difluorobenzyl)-1-hydroxy-2-oxo-1,2-dihydro-1,8-naphthyridine-3-carboxamide] | 12.8154% | 24.1903% | 23.5902% | 142 nM | 268 nM | 121 nM | 210 ± 34 nM | 1.1 ± 0.7 nM | 4.1902% | 0.144% | 1.628% | 
2 | Nc1c(C(=O)NCc2ccc(F)cc2F)c(=O)n(O)c2ncc(CCCCCO)cc12 [XZ419, 4-amino-N-(2,4-difluorobenzyl)-1-hydroxy-6-(5-hydroxypentyl)-2-oxo-1,2-dihydro-1,8-naphthyridine-3-carboxamide] | 14.8861% | 26.7311% | 21.3921% | 173 nM | 249 nM | 269 nM | 226 ± 21 nM | 1.3 ± 0.2 nM |  |  |  | 
3 | Nc1c(C(=O)NCc2ccc(F)cc2F)c(=O)n(O)c2ncc(CCCCCCO)cc12 [XZ426, 4-amino-N-(2,4-difluorobenzyl)-1-hydroxy-6-(6-hydroxyhexyl)-2-oxo-1,2-dihydro-1,8-naphthyridine-3-carboxamide] | 14.449% | 19.5833% | 19.9322% | 159 nM | 169 nM | 175 nM | 163 ± 27.9 nM | 2.3 ± 0.6 nM |  |  |  | 
4 | COC(=O)CCc1cnc2c(c1)c(N)c(C(=O)NCc1ccc(F)cc1F)c(=O)n2O [XZ434, methyl 3-(5-amino-6-((2,4-difluorobenzyl)carbamoyl)-8-hydroxy-7-oxo-7,8-dihydro-1,8-naphthyridin-3-yl)propanoate] | 20.5794% | 19.7322% | 15.311% | 174 nM | 217 nM | 231 nM | 204 ± 34.1 nM |  | 0.3355% | 0.8375% | 1.324e-5% | 0.67 ± 0.15 nM
5 | COC(=O)c1c(Nc2ccc(-c3ccc(N)cc3)cc2)c2cccnc2n(O)c1=O [XZ456, methyl 4-((4'-amino-[1,1'-biphenyl]-4-yl)amino)-1-hydroxy-2-oxo-1,2-dihydro-1,8-naphthyridine-3-carboxylate] | 112.032% | 94.791% | 89.3626% |  |  |  |  |  |  |  |  | 
6 | Nc1ccc(-c2ccc(Nc3cc(=O)n(O)c4ncccc34)cc2)cc1 [XZ460, 4-((4'-amino-[1,1'-biphenyl]-4-yl)amino)-1-hydroxy-1,8-naphthyridin-2(1H)-one] | 91.7662% | 81.7265% | 81.1342% |  |  |  |  |  |  |  |  | 
7 | COC(=O)c1c(N)c2cccnc2n(O)c1=O [XZ462, methyl 4-amino-1-hydroxy-2-oxo-1,2-dihydro-1,8-naphthyridine-3-carboxylate] | 111.483% | 96.7056% | 116.696% |  |  |  |  |  |  |  |  | 
